Laboratory results reported in patent publication US6518262B1, “22R-hydroxycholesta-8, 14-diene derivatives for the inhibition of meiosis” (Akzo Nobel N.V., priority 1999, dated 2003).

System: denuded oocytes (DO)
Experiment: Oocyte assay, agonistic testing, denuded oocytes (DO assay)
Format: cell-based, mice (B6D2-F1, strain C57BL×DBA)
Settings: compound 5 μM, hypoxanthine medium, 22 hours culture, control value in brackets
Description: Oocytes arrested in meiosis contain diffused chromosomes which are surrounded by an intact nuclear envelope known as the germinal vesicle (GV). Upon reinitiation of meiosis by the midcycle gonadotropin surge, the chromosomes recondense and the GV breaks down (GVBD). In vivo, the oocyte is exposed to hypoxanthine (HX), which maintains the oocyte arrested in the meiotic prophase. This meiotic arrest can be mimicked in vitro by addition of hypoxanthine to the culture medium. The agonistic activity of meiosis activating substances is measured as the ability to overcome the hypoxanthine maintained meiotic arrest in denuded oocytes (DO) or cumulus enclosed oocytes (CEO), i.e. as the ability to induce meiotic resumption in vitro.
Ovaries are obtained from immature female mice (B6D2-F1, strain C57BL×DBA). At the age of 19, 20 or 21 days the mice are injected subcutaneously with a single dose of 20 IU follicle stimulating hormone (Humegon, Organon, The Netherlands) in saline.
Forty-eight hours after follicle stimulating hormone injection mice are killed by cervical dislocation. The ovaries are removed, freed of extraneous tissue and placed in a multidish containing 0.5 ml preparation medium at 37° C. L-15 Leibovitz medium (Gibco, pH 7.3±0.1) supplemented with bovine serum albumin (3 mg·ml^−1), L-glutamine (0.23 mM), sodium pyruvate (2 mM) and hypoxanthine (4 mM) is used as preparation medium. The antral follicles of the ovaries are punctured under a dissecting microscope using two 27-gauge needles attached to two 1 ml syringes. Cumulus enclosed oocytes (CEO) of uniform size are selected with a mouth-controlled pipette and rinsed in 0.5 ml fresh preparation medium. About 20 CEO are obtained from one ovary.
Oocytes freed from cumulus cells, i.e. denuded oocytes (DO), are obtained by gently flushing CEO through a fine-bore mouth-controlled pipette. DO were collected in fresh MEM alpha medium, containing bovine serum albumin (3 mg·ml^−1), L-glutamine (0.23 mM), sodium pyruvate (2 mM) and hypoxanthine (4 mM), and washed twice before transfer to the test medium.
The oocyte assay is performed in 3 blocks, each block represents the ovaries of one mouse (randomized block design). […] At t=0 the number of oocytes with intact germinal vesicles (GV) or germinal vesicle break-down (GVBD) is counted under an inverted microscope with differential interference contrast equipment. […] At the end of the culture period the number of oocytes with GV or GVBD per group is counted. For statistical analysis the percentage germinal vesicle breakdown is calculated for each group in one block. These percentages are subjected to arcsin transformation, and differences between control and test compounds are analyzed by an ANOVA test for a randomized block design. […]

Row | SMILES | % GVBD DO assay exp.
1 | CC(C)=CC[C@@H](O)[C@@H](C)[C@H]1CC=C2C3=C(CC[C@@]21C)[C@@]1(C)CC[C@H](O)C(C)(C)[C@@H]1CC3 [Example 2, (3β,5α,20S,22R)-4,4-Dimethylcholesta-8,14,24-triene-3,22-diol] | 3(3) %
2 | CC(C)CC[C@@H](O)[C@@H](C)[C@H]1CC=C2C3=C(CC[C@@]21C)[C@@]1(C)CC[C@H](O)C(C)(C)[C@@H]1CC3 [Example 1, (3β,5α,20S,22R)-4,4-Dimethylcholesta-8,14-diene-3,22-diol] | 0(0) %
